Patent US11434242B2, “Dopamine-b-hydroxylase inhibitors” (BIAL-PORTELA & Cª, S.A., priority 2017, dated 2022)

Biological target: T1, Dopamine beta hydroxylase (Homo sapiens, UniProt P09172)
T1 construct: 125 μl of plasma; tissue Instituto Português do Sangue Transplantação; host or cells: human plasma from healthy donors
T1 sequence (P09172 40-617 limits assumed): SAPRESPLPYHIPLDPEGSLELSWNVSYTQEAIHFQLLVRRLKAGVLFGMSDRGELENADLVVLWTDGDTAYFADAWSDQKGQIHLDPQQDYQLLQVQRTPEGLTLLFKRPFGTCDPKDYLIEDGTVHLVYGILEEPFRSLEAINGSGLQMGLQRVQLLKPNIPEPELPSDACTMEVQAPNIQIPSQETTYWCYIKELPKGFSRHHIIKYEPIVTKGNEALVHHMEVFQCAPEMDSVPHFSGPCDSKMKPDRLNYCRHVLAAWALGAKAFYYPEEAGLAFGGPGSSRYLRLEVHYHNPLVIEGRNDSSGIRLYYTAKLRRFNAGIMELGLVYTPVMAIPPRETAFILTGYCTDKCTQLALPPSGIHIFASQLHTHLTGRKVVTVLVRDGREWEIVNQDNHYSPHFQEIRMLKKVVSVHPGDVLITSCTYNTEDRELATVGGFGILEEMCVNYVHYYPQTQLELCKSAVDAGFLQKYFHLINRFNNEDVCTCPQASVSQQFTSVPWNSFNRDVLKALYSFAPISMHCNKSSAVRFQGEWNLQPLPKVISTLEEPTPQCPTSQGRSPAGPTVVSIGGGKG
Experiment: Dopamine beta hydroxylase activity in human plasma
Format: biochemical
Conditions: for Plasma (0.01 μM), activity in % of control: inhibitor 0.01 μM; for Plasma (0.1 μM), activity in % of control: inhibitor 0.1 μM
Procedure, shortened: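 Healthy-donor human plasma pre-incubated 10 min at 37° C with compound at final 10, 100 or 1000 nM in pH 5.0 acetate buffer with ascorbate, fumarate, pargyline, N-ethylmaleimide, catalase and copper sulfate. Tyramine substrate then added for 45 min; octopamine formed was isolated by SCX cartridge, periodate-converted and read at 330 nm; activity given as % control.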

Row | SMILES | Plasma (0.01 μM), activity in % of control | Plasma (0.1 μM), activity in % of control
1 | Cn1c(CC(=O)N2CC[C@@H](F)C2)c2n(c1=S)C[C@@H](c1c(F)ccc(F)c1F)C2 [Example 292, 1-((R)-3-fluoropyrrolidin-1-yl)-2-((R)-2-methyl-3-thioxo-6-(2,3,6-trifluorophenyl)-2,5,6,7-tetrahydro-3H-pyrrolo[1,2-c]imidazol-1-yl)ethan-1-one] | 101.9 % of control | 68.3 % of control
2 | CN(CCO)C(=O)Cc1c2n(c(=S)n1C)C[C@@H](c1c(F)ccc(F)c1F)C2 [Example 293, (R)—N-(2-hydroxyethyl)-N-methyl-2-(2-methyl-3-thioxo-6-(2,3,6-trifluorophenyl)-2,5,6,7-tetrahydro-3H-pyrrolo[1,2-c]imidazol-1-yl)acetamide] | 104.8 % of control | 86.0 % of control
3 | Cn1c(CC(=O)NC2CCCCC2)c2n(c1=S)C[C@@]1(c3cc(Br)ccc3F)C[C@@H]21 [Example 294, 2-((5aS,6aR)-5a-(5-bromo-2-fluorophenyl)-2-methyl-3-thioxo-2,3,5,5a,6,6a-hexahydrocyclopropa[3,4]pyrrolo[1,2-c]imidazol-1-yl)-N-cyclohexylacetamide] | 39.7 % of control | 1.7 % of control
4 | Cn1c(CC(=O)N[C@H]2CCOC2)c2n(c1=S)C[C@@H](c1c(F)c(F)cc(F)c1F)C2 [Example 295, 2-((R)-2-methyl-3-thioxo-6-(2,3,5,6-tetrafluorophenyl)-2,5,6,7-tetrahydro-3H-pyrrolo[1,2-c]imidazol-1-yl)-N—((S)-tetrahydrofuran-3-yl)acetamide] | 95.6 % of control | 71.5 % of control
5 | Cn1c(CC(=O)N2CCC[C@H]2CF)c2n(c1=S)C[C@@H](c1c(F)ccc(F)c1F)C2 [Example 296, 1-((S)-2-(fluoromethyl)pyrrolidin-1-yl)-2-((R)-2-methyl-3-thioxo-6-(2,3,6-trifluorophenyl)-2,5,6,7-tetrahydro-3H-pyrrolo[1,2-c]imidazol-1-yl)ethan-1-one] | 89.2 % of control | 74.5 % of control
6 | Cn1c(CC(=O)NC2CCOCC2)c2n(c1=S)C[C@@H](c1c(F)c(F)cc(F)c1F)C2 [Example 297, (R)-2-(2-methyl-6-(2,3,5,6-tetrafluorophenyl)-3-thioxo-2,5,6,7-tetrahydro-3H-pyrrolo[1,2-c]imidazol-1-yl)-N-(tetrahydro-2H-pyran-4-yl)acetamide] | 78.7 % of control | 35.4 % of control
7 | Cn1c(CC(=O)NCC(F)(F)F)c2n(c1=S)C[C@@]1(c3cc(Br)ccc3F)C[C@@H]21 [Example 298, 2-((5aS,6aR)-5a-(5-bromo-2-fluorophenyl)-2-methyl-3-thioxo-2,3,5,5a,6,6a-hexahydrocyclopropa[3,4]pyrrolo[1,2-c]imidazol-1-yl)-N-(2,2,2-trifluoroethyl)acetamide] | 83.5 % of control | 28.2 % of control
8 | Cn1c(CC(=O)NC2CCOCC2)c2n(c1=S)C[C@@H](c1c(F)ccc(F)c1F)C2 [Example 299, (R)-2-(2-methyl-6-(2,3,6-trifluorophenyl)-3-thioxo-2,5,6,7-tetrahydro-3H-pyrrolo[1,2-c]imidazol-1-yl)-N-(tetrahydro-2H-pyran-4-yl)acetamide] | 84.3 % of control | 48.4 % of control
9 | Cn1c(CC(=O)NCC(F)(F)F)c2n(c1=S)C[C@@]1(c3cc(Cl)ccc3F)C[C@@H]21 [Example 300, 2-((5aS,6aR)-5a-(5-chloro-2-fluorophenyl)-2-methyl-3-thioxo-2,3,5,5a,6,6a-hexahydrocyclopropa[3,4]pyrrolo[1,2-c]imidazol-1-yl)-N-(2,2,2-trifluoroethyl)acetamide] | 57.0 % of control | 10.9 % of control
10 | Cn1c(CC(=O)N[C@@H]2CCCOC2)c2n(c1=S)C[C@@]1(c3cc(Cl)ccc3F)C[C@@H]21 [Example 301, 2-((5aS,6aR)-5a-(5-chloro-2-fluorophenyl)-2-methyl-3-thioxo-2,3,5,5a,6,6a-hexahydrocyclopropa[3,4]pyrrolo[1,2-c]imidazol-1-yl)-N—((R)-tetrahydro-2H-pyran-3-yl)acetamide] | 49.1 % of control | 6.4 % of control
11 | Cn1c(CC(=O)NC2CCCCC2)c2n(c1=S)C[C@@]1(c3cc(Cl)ccc3F)C[C@@H]21 [Example 302, 2-((5aS,6aR)-5a-(5-chloro-2-fluorophenyl)-2-methyl-3-thioxo-2,3,5,5a,6,6a-hexahydrocyclopropa[3,4]pyrrolo[1,2-c]imidazol-1-yl)-N-cyclohexylacetamide] | 62.7 % of control | 7.7 % of control
12 | CC(C)NC(=O)Cc1c2n(c(=S)n1C)C[C@@]1(c3cc(Cl)ccc3F)C[C@@H]21 [Example 303, 2-((5aS,6aR)-5a-(5-chloro-2-fluorophenyl)-2-methyl-3-thioxo-2,3,5,5a,6,6a-hexahydrocyclopropa[3,4]pyrrolo[1,2-c]imidazol-1-yl)-N-isopropylacetamide] | 79.3 % of control | 34.7 % of control
13 | Cn1c(CC(=O)NCC#N)c2n(c1=S)C[C@@]1(c3cc(Cl)ccc3F)C[C@@H]21 [Example 304, 2-((5aS,6aR)-5a-(5-chloro-2-fluorophenyl)-2-methyl-3-thioxo-2,3,5,5a,6,6a-hexahydrocyclopropa[3,4]pyrrolo[1,2-c]imidazol-1-yl)-N-(cyanomethyl)acetamide] | 51.9 % of control | 21.1 % of control
14 | Cn1c(CC(=O)NCC#N)c2n(c1=S)C[C@@]1(c3cc(Br)ccc3F)C[C@@H]21 [Example 305, 2-((5aS,6aR)-5a-(5-bromo-2-fluorophenyl)-2-methyl-3-thioxo-2,3,5,5a,6,6a-hexahydrocyclopropa[3,4]pyrrolo[1,2-c]imidazol-1-yl)-N-(cyanomethyl)acetamide] | 61.2 % of control | 12.2 % of control
15 | Cn1c(CC(=O)N[C@H]2CCOC2)c2n(c1=S)C[C@@]1(c3cc(Cl)ccc3F)C[C@@H]21 [Example 306, 2-((5aS,6aR)-5a-(5-chloro-2-fluorophenyl)-2-methyl-3-thioxo-2,3,5,5a,6,6a-hexahydrocyclopropa[3,4]pyrrolo[1,2-c]imidazol-1-yl)-N—((S)-tetrahydrofuran-3-yl)acetamide] | 70.6 % of control | 18.0 % of control
16 | O=C(Cc1[nH]c(=S)n2c1[C@@H]1C[C@]1(c1cc(Br)ccc1F)C2)N[C@@H]1CCOC1 [Example 307, 2-((5aS,6aR)-5a-(5-bromo-2-fluorophenyl)-3-thioxo-2,3,5,5a,6,6a-hexahydrocyclopropa[3,4]pyrrolo[1,2-c]imidazol-1-yl)-N—((R)-tetrahydrofuran-3-yl)acetamide] | 73.9 % of control | 33.0 % of control
17 | Cn1c(CC(=O)N[C@H]2CCOC2)c2n(c1=S)C[C@@]1(c3cc(Br)ccc3F)C[C@@H]21 [Example 308, 2-((5aS,6aR)-5a-(5-bromo-2-fluorophenyl)-2-methyl-3-thioxo-2,3,5,5a,6,6a-hexahydrocyclopropa[3,4]pyrrolo[1,2-c]imidazol-1-yl)-N—((S)-tetrahydrofuran-3-yl)acetamide] | 64.2 % of control | 12.8 % of control
18 | Cn1c(CC(=O)N2CCCC2)c2n(c1=S)C[C@@]1(c3cc(Cl)ccc3F)C[C@@H]21 [Example 309, 2-((5aS,6aR)-5a-(5-chloro-2-fluorophenyl)-2-methyl-3-thioxo-2,3,5,5a,6,6a-hexahydrocyclopropa[3,4]pyrrolo[1,2-c]imidazol-1-yl)-1-(pyrrolidin-1-yl)ethan-1-one] | 86.2 % of control | 38.8 % of control
19 | Cn1c(CC(=O)N2CCCC2)c2n(c1=S)C[C@@]1(c3cc(Br)ccc3F)C[C@@H]21 [Example 310, 2-((5aS,6aR)-5a-(5-bromo-2-fluorophenyl)-2-methyl-3-thioxo-2,3,5,5a,6,6a-hexahydrocyclopropa[3,4]pyrrolo[1,2-c]imidazol-1-yl)-1-(pyrrolidin-1-yl)ethan-1-one] | 65.9 % of control | 22.3 % of control
